This is an account of results in patent publication US20200131144A1, “AMINE OR (THIO)AMIDE CONTAINING LXR MODULATORS” (Phenex-FXR GmbH, priority 2017, published 2020).

Assay [1] concerns the target T1, GST-LXRβ ligand-binding domain (Homo sapiens, UniProt P55055, INS174Q).
T1 construct: amino acids 156-461; NP009052; made in house; host or cells: E. coli
T1 sequence (P55055 with tags, fused parts or gaps INS174Q limits assumed): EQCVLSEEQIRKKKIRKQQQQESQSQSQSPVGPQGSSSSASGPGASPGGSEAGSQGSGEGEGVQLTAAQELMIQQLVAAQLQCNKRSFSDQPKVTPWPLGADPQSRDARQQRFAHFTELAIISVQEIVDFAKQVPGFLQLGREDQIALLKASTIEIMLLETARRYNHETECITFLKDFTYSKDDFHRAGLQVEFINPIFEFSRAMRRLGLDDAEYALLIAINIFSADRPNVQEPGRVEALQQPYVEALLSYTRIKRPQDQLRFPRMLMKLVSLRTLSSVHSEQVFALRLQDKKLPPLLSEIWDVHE
The assay is described as follows: TR-FRETβ activity assay (NCoA3 coactivator peptide recruitment). It counts as biochemical. To be noted: 1 μM 24(S)-25-epoxycholesterol as prestimulating agonist; inverse agonist unless *. Put shortly:
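E. coli-expressed GST-LXRβ LBD (aa 156-461, 76 nM) with biotinylated NCoA3 peptide (400 nM), anti-GST-Tb cryptate donor and streptavidin-XL665 acceptor in 240 mM KCl, BSA, 0.002% Triton X-100. Equilibrated 1 h at 4° C; TR-FRET read at 615/665 nm, triplicates.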

Assay [2] deals with T2, LXRα ligand-binding domain (LBD) (Homo sapiens, UniProt Q13133).
T2 construct: expressed in transfected cells; host or cells: HEK293
T2 sequence (Q13133 155-447): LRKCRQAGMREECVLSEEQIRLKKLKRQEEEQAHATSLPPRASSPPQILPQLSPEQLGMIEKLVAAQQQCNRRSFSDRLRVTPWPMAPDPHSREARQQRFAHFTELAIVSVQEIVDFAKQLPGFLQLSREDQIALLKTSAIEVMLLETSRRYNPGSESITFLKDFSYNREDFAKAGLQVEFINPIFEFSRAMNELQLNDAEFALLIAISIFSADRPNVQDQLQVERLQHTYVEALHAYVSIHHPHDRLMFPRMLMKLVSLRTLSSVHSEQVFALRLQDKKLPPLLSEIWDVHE
The assay is described as follows: LXR Gal4 reporter transient transfection assay, mammalian two-hybrid, LBD-M2H Gal4α. It counts as cell-based. Conditions: HEK293 cells; inverse agonist unless *. How it is done:
(§1) The tested compounds were usually dissolved, tested and stored as 20 mM stock solutions in DMSO. Since sulfonyl acetic acid derivatives tend to decarboxylate under these conditions, these stock solutions were prepared, tested and stored as 20 mM DMSO stock solutions containing 100 mM trifluoroacetic acid (5 equivalents). Sulfonyl acetic acid derivatives are shelf stable as solid at rt for long time as reported by Griesbrecht et al. (Synlett 2010:374) or Faucher et al. (J. Med. Chem. 2004; 47:18).
(§2) LXR Gal4 Reporter Transient Transfection Assays
(§3) LXRα and LXRβ activity status was determined via detection of interaction with coactivator and corepressor proteins in mammalian two-hybrid experiments (M2H). For this, via transient transfection the full length (FL) proteins of LXRα (amino acids 1-447; NP005684; SEQ ID NO:1) or LXRβ-(amino acids 1-461; NP009052; SEQ ID NO:2) or the ligand-binding domains (LBD) of LXRα (amino acids 155-447 SEQ ID NO:3) or LXR (amino acids 156-461; SEQ ID NO:4) were expressed from pCMV-AD (Stratagene) as fusions to the transcriptional activation domain of NFkB. As cofactors, domains of either the steroid receptor coactivator 1 (SRC1; amino acids 552-887; SEQ ID NO:5) or of the corepressor NCoR (amino acids 1906-2312; NP006302; SEQ ID NO:6) were expressed as fusions to the DNA binding domain of the yeast transcription factor GAL4 (from pCMV-BD; Stratagene). Interaction was monitored via activation of a coexpressed Firefly Luciferase Reporter gene under control of a promoter containing repetitive GAL4 response elements (vector pFRLuc; Stratagene). Transfection efficiency was controlled via cotransfection of constitutively active pRL-CMV Renilla reniformis luciferase reporter (Promega). HEK293 cells were grown in minimum essential medium (MEM) with 2 mM L-glutamine and Earle's balanced salt solution supplemented with 8.3% fetal bovine serum, 0.1 mM non-essential amino acids, 1 mM sodium pyruvate, at 37° C. in 5% CO2. 3.5×10^4 cells/well were plated in 96-well cell culture plates in growth medium supplemented with 8.3% fetal bovine serum for 16-20 h to—90% confluency. For transfection, medium was taken off and LXR and cofactor expressing plasmids as well as the reporter plasmids are added in 30 μL OPTIMEM/well including polyethylene-imine (PEI) as vehicle. Typical amounts of plasmids transfected/well: pCMV-AD-LXR (5 ng), pCMV-BD-cofactor (5 ng), pFR-Luc (100 ng), pRL-CMV (0.5 ng). Compound stocks were prepared in DMSO, prediluted in MEM to a total volume of 120 μL, and added 4 h after addition of the transfection mixture (final vehicle concentration not exceeding 0.2%). Cells were incubated for additional 16 h, lysed for 10 min in 1×Passive Lysis Buffer (Promega) and Firefly and Renilla luciferase activities were measured sequentially in the same cell extract using buffers containing D-luciferine and coelenterazine, respectively. Measurements of luminescence were done in a BMG-luminometer.

Assay [3] addresses T3, LXRβ ligand-binding domain (LBD) (Homo sapiens, UniProt P55055, INS174Q).
T3 construct: or LXR (amino acids 156-461); expressed in transfected cells; host or cells: HEK293
T3 sequence (P55055 with tags, fused parts or gaps INS174Q limits assumed): T1 sequence (P55055 with tags, fused parts or gaps INS174Q limits assumed)
The assay is described as follows: LXR Gal4 reporter transient transfection assay, mammalian two-hybrid, LBD-M2H Gal4β. It counts as cell-based. Conditions: HEK293 cells; inverse agonist unless *. As to the method: as §1, §2, §3

Broadly, the EC50 is the concentration needed to bring the measured effect to its halfway point.

Turning to `CC(C)(C(=O)O)c1cccc(-c2ccc(CN(Cc3ccc(C(F)(F)F)o3)Cc3c(OC(F)F)ccc4ccccc34)cc2)c1` [27/68], the EC50 in assay [1], in assay [2] and in assay [3] was under 100 nM throughout.
Take `COc1cc(-c2cccc(C(C)(C)C(=O)O)c2)cnc1CN(Cc1ccc(C(F)(F)F)o1)Cc1c(C)ccc2ccccc12` [22/4]: the EC50 in assay [1] was 100 to 1000 nM; in assay [2], 1000 to 10000 nM; in assay [3], under 100 nM.
For `CC(c1cccc2ccccc12)N(Cc1ccc(-c2cccc(S(=O)(=O)CC(=O)O)c2)cc1)Cc1ccc(C(F)(F)F)o1` (stereo not drawn) [Example 7, 2-((4′-(((1-(Naphthalen-1-yl)ethyl)((5-(trifluoromethyl)furan-2-yl)methyl)amino)methyl)-[1,1′-biphenyl]-3-yl)sulfonyl)acetic acid], the EC50 in assay [1], in assay [2] and in assay [3] was under 100 nM throughout.
Consider `Cc1ccc2ccccc2c1CN(Cc1ccc(-c2cncc(C(C)(C)C(=O)O)c2)cc1)Cc1ccc(C(F)(F)F)o1` [26/1], for which the EC50 in assay [1] is 1000 to 10000 nM; in assay [2], 100 to 1000 nM; in assay [3], under 100 nM.
`CC(C)(C(=O)O)c1cccc(-c2ccc(CN(Cc3ccc(C(F)(F)F)o3)C(=O)C34CC5CC(CC(C5)C3)C4)cc2)c1` [27/56]: in assay [1], the FRETβ entry is on record as “B*”. The EC50 was 100 to 1000 nM in assay [2] and under 100 nM in assay [3].
Taken in the same sequence, the figures for `CC(C)(C(=O)O)c1cccc(-c2ccc(CN(Cc3ccc(C(F)(F)F)o3)Cc3cccc4nonc34)cc2)c1` [25/1] were “B*”, 100 to 1000 nM and under 100 nM.
For `Cc1ccc2ccccc2c1CN(Cc1ccc(-c2cccc(C(C)(C)C(=O)O)n2)cc1)Cc1ccc(C(F)(F)F)o1` [14/2], the EC50 in assay [1] is 1000 to 10000 nM; in assay [2], 100 to 1000 nM; in assay [3], under 100 nM.
Taken in the same sequence, the figures for `Cc1ccc2ccccc2c1CN(Cc1ccc(C(F)(F)F)o1)Cc1ccc(-c2cccc(C(C)(C)C(=O)O)c2)c2nccn12` [7/15] were 1000 to 10000 nM, 100 to 1000 nM and under 100 nM.
Taken in the same sequence, the figures for `Cc1cc(C)c(CN(Cc2ccc(C(F)(F)F)o2)Cc2ccc(-c3cccc(S(=O)(=O)CC(=O)O)c3)cc2Cl)c(C)c1` [15/3] were 1000 to 10000 nM, 1000 to 10000 nM and 100 to 1000 nM.
As for `Cc1cc(C)c(C(=O)N(Cc2ccc(-c3cccc(OCC(=O)O)c3)cc2)Cc2ccc(C(F)(F)F)o2)c(C)c1` [10/3], the EC50 was over 10000 nM in assay [1], 100 to 1000 nM in assay [2] and 100 to 1000 nM in assay [3].
Turning to `Cc1cc(C)c2ccccc2c1CN(Cc1ccc(-c2cccc(C(C)(C)C(=O)O)c2)cc1)Cc1ccc(C(F)(F)F)o1` [24/6], the EC50 in assay [1] was 100 to 1000 nM; in assay [2] it was under 100 nM; in assay [3], under 100 nM.
Consider `COc1cc(-c2ccc3c(c2)C(C)(C)C(=O)OC3)ccc1CN(Cc1ccc(C(F)(F)F)o1)Cc1c(C)ccc2ccccc12` [7/9], for which the EC50 was 1000 to 10000 nM in assay [1], 1000 to 10000 nM in assay [2] and under 100 nM in assay [3].
In the case of `Cc1ccc2ccccc2c1CN(Cc1ccc(-c2ccnc(C(C)(C)C(=O)O)c2)cc1)Cc1ccc(C(F)(F)F)o1` [14/3], the EC50 in assay [1] is 100 to 1000 nM; in assay [2], under 100 nM; in assay [3], under 100 nM.
Turning to `CC(C)(C(=O)O)c1cccc(-c2ccc(CN(Cc3ccc(C(F)(F)F)o3)Cc3cccc4c3OC(F)(F)O4)cc2)c1` [25/2], the EC50 in assay [2] is 100 to 1000 nM; in assay [3], under 100 nM.
Turning to `Cc1nc2ccccc2nc1CN(Cc1ccc(-c2cccc(C(C)(C)C(=O)O)c2)cc1)Cc1ccc(C(F)(F)F)o1` [Example 25], the values for the EC50 in assay [1] and in assay [3] were over 10000 nM and 100 to 1000 nM, respectively.
For `Cc1ccc2ccccc2c1CN(Cc1ccc(C(F)(F)F)o1)Cc1cnc(-c2cccc(C(C)(C)C(=O)O)c2)s1` [22/2], the values for the EC50 in assay [1] and in assay [3] were 1000 to 10000 nM and 100 to 1000 nM, respectively.
